According to ChEMBL document CHEMBL1201862, “PubChem BioAssay data set” (2004):
The source made the active and inactive calls.

Assays:
[1] = molecular target: FAD-linked sulfhydryl oxidase ALR (Homo sapiens, UniProt P55789); assay: inhibitors of human ALR sulfhydryl oxidase, dose response, biochemical, H2O2 detection, luminescence, cherry-pick (AID 493248)
[2] = molecular target: T1, Polyadenylate-binding protein 1 (Homo sapiens, UniProt P11940); assay: PABP1 MLLE–PAM2 binding inhibitor potency, dose response, biochemical, fluorescence polarization, FITC-PAM2 peptide (AID 602259); type: functional; settings: read-out: IC50_Mean
T1 sequence (P11940 whole entry): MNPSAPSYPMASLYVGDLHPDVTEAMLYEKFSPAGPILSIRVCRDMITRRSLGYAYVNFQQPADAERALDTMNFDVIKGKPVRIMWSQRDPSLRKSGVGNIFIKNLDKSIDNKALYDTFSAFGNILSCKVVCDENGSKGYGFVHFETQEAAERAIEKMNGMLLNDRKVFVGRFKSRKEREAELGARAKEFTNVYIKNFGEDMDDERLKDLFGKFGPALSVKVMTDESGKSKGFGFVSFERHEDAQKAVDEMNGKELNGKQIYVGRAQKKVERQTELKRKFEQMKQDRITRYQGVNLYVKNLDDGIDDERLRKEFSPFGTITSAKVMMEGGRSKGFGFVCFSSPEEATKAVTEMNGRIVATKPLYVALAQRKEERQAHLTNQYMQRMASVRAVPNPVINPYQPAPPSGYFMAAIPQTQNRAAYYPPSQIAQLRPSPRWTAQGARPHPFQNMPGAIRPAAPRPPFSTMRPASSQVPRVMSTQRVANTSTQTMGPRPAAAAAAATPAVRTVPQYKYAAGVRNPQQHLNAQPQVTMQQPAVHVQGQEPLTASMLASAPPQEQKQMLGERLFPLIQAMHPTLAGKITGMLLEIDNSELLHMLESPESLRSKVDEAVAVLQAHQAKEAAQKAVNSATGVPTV

[3] = molecular target: T1, Polyadenylate-binding protein 1; assay: PABP1 MLLE–PAM2 interaction inhibitors, dose response, miRNA deadenylation inhibitor project, biochemical, fluorescence polarization, Cy5-PAM2 peptide, secondary (AID 602260); type: functional; settings: read-out: IC50_Mean
[4] = molecular target: T2, Calpain-2 catalytic subunit (Sus scrofa, UniProt P43367); assay: pig calpain II inhibitor potency, dose response, biochemical, fluorogenic peptide substrate (AID 1420); type: functional
T2 sequence (P43367 whole entry): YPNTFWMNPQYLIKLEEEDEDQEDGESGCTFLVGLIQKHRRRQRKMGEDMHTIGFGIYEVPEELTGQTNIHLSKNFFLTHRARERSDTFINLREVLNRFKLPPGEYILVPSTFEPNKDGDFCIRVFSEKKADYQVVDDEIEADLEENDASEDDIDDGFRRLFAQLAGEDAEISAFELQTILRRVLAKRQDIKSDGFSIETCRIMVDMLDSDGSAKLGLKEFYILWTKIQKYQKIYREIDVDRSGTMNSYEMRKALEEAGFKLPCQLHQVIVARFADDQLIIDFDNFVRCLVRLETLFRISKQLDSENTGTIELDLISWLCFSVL

[5] = molecular target: T3, Corticotropin-releasing factor receptor 2/Corticotropin-releasing factor-binding protein (Homo sapiens, UniProt P24387+Q13324); assay: Dose Response confirmation of uHTS hits for small molecule antagonists of the CRF-binding protein and CRF-R2 receptor complex.; type: functional; settings: read-out: IC50_Mean
T3 sequence (Q13324 whole entry): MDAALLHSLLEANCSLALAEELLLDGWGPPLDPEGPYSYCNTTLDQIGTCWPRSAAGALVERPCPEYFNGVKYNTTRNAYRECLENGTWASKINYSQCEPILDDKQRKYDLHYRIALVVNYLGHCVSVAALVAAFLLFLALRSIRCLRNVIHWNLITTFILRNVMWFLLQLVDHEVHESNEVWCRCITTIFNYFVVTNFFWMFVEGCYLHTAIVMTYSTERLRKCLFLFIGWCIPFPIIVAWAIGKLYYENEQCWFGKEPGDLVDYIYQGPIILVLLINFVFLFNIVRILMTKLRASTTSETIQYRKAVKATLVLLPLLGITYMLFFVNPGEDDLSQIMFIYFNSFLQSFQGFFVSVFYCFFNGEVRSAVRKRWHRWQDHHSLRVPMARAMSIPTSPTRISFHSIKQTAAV
T3 sequence (P24387 whole entry): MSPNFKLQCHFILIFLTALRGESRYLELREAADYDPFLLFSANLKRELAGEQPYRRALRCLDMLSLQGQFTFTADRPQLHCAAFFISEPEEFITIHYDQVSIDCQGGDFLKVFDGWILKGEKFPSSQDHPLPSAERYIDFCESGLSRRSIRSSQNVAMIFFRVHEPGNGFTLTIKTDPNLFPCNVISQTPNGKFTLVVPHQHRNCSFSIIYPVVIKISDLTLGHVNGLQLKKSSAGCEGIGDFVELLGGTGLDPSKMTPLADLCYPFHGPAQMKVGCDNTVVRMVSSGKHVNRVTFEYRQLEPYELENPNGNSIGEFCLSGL

[6] = molecular target: T3, Corticotropin-releasing factor receptor 2/Corticotropin-releasing factor-binding protein; assay: activators of CRF receptor 2 with binding protein – uHTS hits, confirmation (AID 602473); type: functional; settings: read-out: EC50_Mean
[7] = molecular target: T4, High affinity choline transporter 1 (Homo sapiens, UniProt Q9GZV3); assay: CHT inhibitors, dose response, cell-based, 5-point CRC, membrane potential dye (AID 504840); type: functional
T4 sequence (Q9GZV3 whole entry): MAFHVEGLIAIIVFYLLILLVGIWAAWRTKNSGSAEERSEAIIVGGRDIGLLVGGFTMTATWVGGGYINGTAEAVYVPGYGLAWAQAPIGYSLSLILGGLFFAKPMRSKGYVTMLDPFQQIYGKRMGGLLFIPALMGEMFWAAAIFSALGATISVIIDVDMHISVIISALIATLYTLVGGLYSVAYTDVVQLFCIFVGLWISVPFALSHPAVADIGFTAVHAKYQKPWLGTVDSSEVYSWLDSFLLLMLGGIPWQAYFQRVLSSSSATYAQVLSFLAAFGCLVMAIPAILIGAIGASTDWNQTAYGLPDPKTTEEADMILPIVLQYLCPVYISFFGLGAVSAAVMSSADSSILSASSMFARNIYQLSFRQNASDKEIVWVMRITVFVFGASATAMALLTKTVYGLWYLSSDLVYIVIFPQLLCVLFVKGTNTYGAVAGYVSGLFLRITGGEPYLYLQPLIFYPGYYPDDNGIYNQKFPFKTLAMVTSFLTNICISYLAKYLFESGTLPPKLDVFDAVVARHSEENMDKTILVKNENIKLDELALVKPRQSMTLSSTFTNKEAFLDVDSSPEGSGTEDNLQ

SN12K1 = assay: cells; type: functional; settings: Homo sapiens
P388/ADR = assay: cells; type: functional; settings: Mus musculus
P388 = assay: cells; type: functional; settings: Mus musculus
[8] = molecular target: T5, Rac GTPase-activating protein 1 (Homo sapiens, UniProt Q9H0H5); assay: MgcRacGAP GTPase-activating activity inhibitors, confirmation, biochemical, ADP Hunter fluorescence, primary and confirmatory (AID 624330); type: functional
T5 sequence (Q9H0H5 whole entry): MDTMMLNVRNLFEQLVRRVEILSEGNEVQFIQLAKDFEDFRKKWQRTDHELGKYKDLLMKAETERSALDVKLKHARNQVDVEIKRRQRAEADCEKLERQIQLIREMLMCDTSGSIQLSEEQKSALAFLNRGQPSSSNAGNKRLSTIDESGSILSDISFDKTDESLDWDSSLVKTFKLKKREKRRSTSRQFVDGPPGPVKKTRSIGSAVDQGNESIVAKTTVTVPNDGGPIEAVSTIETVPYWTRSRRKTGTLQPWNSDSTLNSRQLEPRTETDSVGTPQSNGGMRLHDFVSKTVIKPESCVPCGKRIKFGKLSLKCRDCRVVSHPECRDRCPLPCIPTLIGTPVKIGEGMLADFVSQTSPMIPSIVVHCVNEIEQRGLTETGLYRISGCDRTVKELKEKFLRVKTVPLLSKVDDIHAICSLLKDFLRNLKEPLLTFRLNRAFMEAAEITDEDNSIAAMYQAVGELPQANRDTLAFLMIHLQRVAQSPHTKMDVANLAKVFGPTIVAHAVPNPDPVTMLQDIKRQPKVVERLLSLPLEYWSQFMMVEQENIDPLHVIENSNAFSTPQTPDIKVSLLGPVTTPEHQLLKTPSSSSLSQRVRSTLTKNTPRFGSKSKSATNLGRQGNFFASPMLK

Sequence of FAD-linked sulfhydryl oxidase ALR (P55789 whole entry): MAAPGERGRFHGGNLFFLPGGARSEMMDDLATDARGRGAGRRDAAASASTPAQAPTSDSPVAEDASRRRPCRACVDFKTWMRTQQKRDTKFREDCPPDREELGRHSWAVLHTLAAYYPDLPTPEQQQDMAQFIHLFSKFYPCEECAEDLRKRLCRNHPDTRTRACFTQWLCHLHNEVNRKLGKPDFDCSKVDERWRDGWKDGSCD

Row | AC50 [1] | IC50 [2] | IC50 [3] | SMILES | further results
1 | 3.31 µM (active) | – | – | O=C(NCc1cccnc1)c1ccc2c(c1)N(Cc1ccccc1)CCS2 | –
2 | 0.301 µM (active) | > 66 µM (inactive) | > 66 µM (inactive) | Fc1ccc(-c2ccnc(S)n2)cc1 | –
3 | 0.58 µM (active) | – | – | CC(=O)NNc1nc(-c2ccc(NC(C)=O)cc2)cs1 | –
4 | 6.86 µM (active) | – | – | Cc1ccc(S(=O)(=O)N2[C@@H](c3ccc(Cl)cc3)C(C(=O)O)=CC[C@H]2c2ccc(Cl)c(Cl)c2)cc1 | IC50 [7]: 0.794 µM (active)
5 | 2.3 µM (active) | – | – | COc1cc(/C=N/n2c(S)nnc2C2CCCCC2)ccc1O | IC50 [8]: 47.9 µM (active)

The next lines start with the compound.

Row | SMILES | AC50 [1] | IC50 [2] | IC50 [3] | further results
6 | Cc1cc(N2CCN(c3ccccc3)CC2)nc(N)n1 | 4.38 µM (active) | – | – | –
7 | COC(=O)c1ccc2c(=O)sc(N3CCC(C(N)=O)CC3)nc2c1 | – | 52.6 µM (inactive) | > 66 µM (inactive) | –
8 | CCCN(CCC)C(=S)NC(=O)c1ccc(-c2ccccc2)cc1 | – | > 66 µM (inactive) | > 66 µM (inactive) | IC50 [4]: 36.7 µM (not active)
9 | CC1CCN(C(=S)c2ccc([N+](=O)[O-])cc2)CC1 | – | > 66 µM (inactive) | > 66 µM (inactive) | –
10 | Cc1cccc(C)c1NC(=S)Nc1ccc(F)cc1 | – | > 66 µM (inactive) | > 66 µM (inactive) | IC50 [5]: > 47.1 µM (inactive); EC50 [6]: > 53 µM (inactive)
11 | O=C1N=C2SCCN2/C1=C\c1ccccc1Cl | – | > 66 µM (inactive) | > 66 µM (inactive) | –
12 | c1ccc2c3c(ccc2c1)-c1[nH]ncc1CCO3 | – | – | – | GI50 (SN12K1): 22.4 µM (inactive); GI50 (P388/ADR): 26.9 µM (inactive); GI50 (P388): 26.1 µM (inactive)
13 | C=C1C(C)C2C(Cc3ccccc3)NC(=O)C23C(OC(C)=O)C=CC(C)(O)C(=O)C(C)C/C=C/C3C1O (configuration not stated) | – | – | – | GI50 (SN12K1): 0.0619 µM (active); GI50 (P388/ADR): 14.4 µM (inactive); GI50 (P388): 0.454 µM (active)
14 | COc1ccc(Cc2nn(C3OC(COC(C)=O)C(OC(C)=O)C(OC(C)=O)C3OC(C)=O)c(=S)n(-c3ccc(OC)cc3)c2=O)cc1 (configuration not stated) | – | – | – | GI50 (SN12K1): > 100 µM (inactive); GI50 (P388/ADR): > 100 µM (inactive); GI50 (P388): > 100 µM (inactive)
